The values below come from patent US9751854B2 (Millennium Pharmaceuticals, Inc., priority 2014, dated 2017).

As usually defined, the IC50 is the concentration that inhibits the measured activity by half.

The first experiment deals with human VPS34 (Homo sapiens (Human), UniProt Q8NEB9). Description: Human VPS34 enzyme assay (Adapta TR-FRET ADP detection). It counts as biochemical. On the set-up: Percent Inhibition: dose or concentration left out as unconfirmed.
Chain of human VPS34 (Q8NEB9 whole entry): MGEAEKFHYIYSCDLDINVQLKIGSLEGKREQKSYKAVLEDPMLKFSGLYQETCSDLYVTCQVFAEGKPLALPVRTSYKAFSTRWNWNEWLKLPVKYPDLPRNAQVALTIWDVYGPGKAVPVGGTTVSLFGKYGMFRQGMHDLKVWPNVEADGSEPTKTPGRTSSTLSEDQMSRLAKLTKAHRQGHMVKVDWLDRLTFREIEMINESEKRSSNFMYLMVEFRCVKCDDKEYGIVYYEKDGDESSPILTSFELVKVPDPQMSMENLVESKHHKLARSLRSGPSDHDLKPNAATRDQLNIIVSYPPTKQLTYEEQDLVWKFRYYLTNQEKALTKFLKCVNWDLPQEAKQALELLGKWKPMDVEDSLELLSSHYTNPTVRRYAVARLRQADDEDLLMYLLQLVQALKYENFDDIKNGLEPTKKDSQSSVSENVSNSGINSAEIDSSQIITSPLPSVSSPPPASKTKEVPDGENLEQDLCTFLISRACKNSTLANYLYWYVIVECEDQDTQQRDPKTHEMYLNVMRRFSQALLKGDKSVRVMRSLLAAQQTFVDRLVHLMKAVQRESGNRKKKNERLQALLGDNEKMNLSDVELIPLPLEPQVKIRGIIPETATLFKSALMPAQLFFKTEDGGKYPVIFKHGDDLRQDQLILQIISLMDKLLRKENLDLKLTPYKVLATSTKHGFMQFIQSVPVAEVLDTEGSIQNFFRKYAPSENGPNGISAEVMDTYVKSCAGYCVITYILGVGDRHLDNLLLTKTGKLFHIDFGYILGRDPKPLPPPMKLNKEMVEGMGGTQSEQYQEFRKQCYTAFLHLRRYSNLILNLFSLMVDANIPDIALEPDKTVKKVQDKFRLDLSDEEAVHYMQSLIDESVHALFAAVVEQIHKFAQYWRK
Conditions: not given
In general terms: In TR-FRET formats the signal depends on donor and acceptor labels being close together.
As to `Cc1ncc(-c2ccnc(NC(=O)C3CC3(F)F)c2)cc1NS(=O)(=O)N(C)C` (single isomer, unassigned) [Compound I-498], the “Percent Inhibition” value came to 83%. On the same count and under the same terms, the result for `CC(=O)Nc1cc(-c2cnc(C)c(NS(=O)(=O)c3cccc(Cl)c3Cl)c2)ccn1` [Compound I-342, N-(5-{[(2,3-dichlorophenyl)sulfonyl]amino}-6-methyl-3,4′-bipyridin-2′-yl)acetamide] reads over 99%; that for `Cc1ncc(-c2ccnc(NC(=O)C3CC3(F)F)c2)cc1NS(=O)(=O)N(C)C` (single isomer, unassigned) [Compound I-499], over 99%.

The experiment is the same for the next values; noted with them: IC50 range class.
`CC(=O)Nc1cc(-c2cnc(N)c(S(=O)(=O)Cc3ccccc3C(F)(F)F)c2)ccn1` [Compound I-50, N-(6-amino-5-{[2-(trifluoromethyl)benzyl]sulfonyl}-3,4′-bipyridin-2′-yl)acetamide]: the IC50 is 10 to 50 nM.

`CC(=O)Nc1cc(-c2cnc(C)c(NS(=O)(=O)c3ccc(F)cc3Cl)c2)ccn1` [Compound I-206, N-(5-{[(2-chloro-4-fluorophenyl)sulfonyl]amino}-6-methyl-3,4′-bipyridin-2′-yl)acetamide] came in with an IC50 of under 10 nM. Same read-out and setting: the figure for `CC(=O)Nc1cc(-c2cnc3[nH]cc(S(=O)(=O)N4CCN(C)CC4)c3c2)ccn1` [Compound I-103, N-(4-{3-[(4-methylpiperazin-1-yl)sulfonyl]-1H-pyrrolo[2,3-b]pyridin-5-yl]pyridin-2-yl)acetamide] is under 10 nM. In turn, `CC(=O)Nc1cc(-c2cnc(Cl)c(NS(=O)(=O)N3CCCC3)c2C)ccn1` [Compound I-488, N-{6-chloro-4-methyl-5-[(pyrrolidin-1-ylsulfonyl)amino]-3,4′-bipyridin-2′-yl}acetamide] registered an IC50 of 10 to 50 nM. Still for that read-out and setting: the figure for `Cc1ncc(-c2ccnc(NC(=O)C3CC3(F)F)c2)cc1NS(=O)(=O)N(C)C` (single isomer, unassigned) [Compound I-498] is 10 to 50 nM; for `CC(=O)Nc1cc(-c2cnc(C)c(NS(=O)(=O)c3cn(C)nc3C(F)(F)F)c2)ccn1` [Compound I-18, N-[6-methyl-5-({[1-methyl-3-(trifluoromethyl)-1H-pyrazol-4-yl]sulfonyl}amino)-3,4′-bipyridin-2′-yl]acetamide] it is under 10 nM; for `CC(=O)Nc1cc(-c2cnc(C)c(C(=O)Nc3ccc(F)cc3F)c2)ccn1` [Compound I-431, 2′-acetamido-N-(2,4-difluorophenyl)-6-methyl-3,4′-bipyridine-5-carboxamide] it is over 100 nM.

As for `CNc1ncc(-c2ccnc(NC(C)=O)c2)cc1N1CCCS1(=O)=O` [Compound I-132, N-[5-(1,1-dioxidoisothiazolidin-2-yl)-6-(methylamino)-3,4′-bipyridin-2′-yl]acetamide], the IC50 was under 10 nM. Same read-out and setting: the figure for `COc1ncc(-c2ccnc(NC(C)=O)c2)cc1S(=O)(=O)NC12CC(C1)C2` [Compound I-470] is 10 to 50 nM. Same read-out and setting: the figure for `CC(=O)Nc1cc(-c2cnc(C)c(OCC3CC3)c2)ccn1` [Compound I-492, N-[5-(cyclopropylmethoxy)-6-methyl-3,4′-bipyridin-2′-yl]acetamide] is over 100 nM.

`CC(=O)Nc1cc(-c2cnc(Cl)c(NS(=O)(=O)c3ccccc3Cl)c2C)ccn1` [Compound I-240, N-(6-chloro-5-{[(2-chlorophenyl)sulfoayl]amino}-4-methyl-3,4′-bipyridin-2′-yl)acetamide]: the IC50 was 10 to 50 nM.

`CC(=O)Nc1cc(-c2cnc(C)c(NS(=O)(=O)c3cccc(Cl)c3Cl)c2)ccn1` [Compound I-342, N-(5-{[(2,3-dichlorophenyl)sulfonyl]amino}-6-methyl-3,4′-bipyridin-2′-yl)acetamide] displayed an IC50 of under 10 nM. As to `CC(=O)Nc1cc(-c2cnc(N)c(S(C)(=O)=O)c2)ccn1` [Compound I-95, N-[6-amino-5-(methylsulfonyl)-3,4′-bipyridin-2′-yl]acetamide], the IC50 was 10 to 50 nM. On the same count and under the same terms, the figure for `CC(=O)Nc1cc(-c2cnc3cnn(S(=O)(=O)C4CC4)c3c2)ccn1` [Compound I-2, N-{4-[1-(cyclopropylsulfonyl)-1H-pyrazolo[4,3-b]pyridin-6-yl]pyridin-2-yl}acetamide] is 10 to 50 nM; for `CC(=O)Nc1cc(-c2cnc(N)c(C(=O)N3CC[C@@H](F)C3)c2)ccn1` [Compound I-157, N-[6-amino-5-{[(3R)-3-fluoropyrrolidin-1-yl]carbonyl}-3,4′-bipyridin-2′-yl)acetamide] it is 10 to 50 nM.

Molecule `CC(=O)Nc1cc(-c2ccc(S(=O)(=O)Nc3cc(-c4ccnc(NC(C)=O)c4)cnc3C)c(F)c2)ccn1` [Compound I-86, N-(4-{4-[(2′-acetamido-6-methyl-3,4′-bipyridin-5-yl)sulfamoyl]-3-fluorophenyl}pyridin-2-yl)acetamide] registered an IC50 of under 10 nM. In turn, `CC(=O)Nc1cc(-c2cnc(N(C)C)c(C(=O)N(C)c3ccc(F)cc3F)c2)ccn1` [Compound I-174, 2′-Acetamido-N-(2,4-difluorophenyl)-6-(dimethylamino)-N-methyl-[3,4′-bipyridine]-5-carboxamide] came in with an IC50 of under 10 nM. In the case of `CC(=O)Nc1cc(-c2cnc3[nH]cc(S(=O)(=O)N4CCCC4)c3c2)ccn1` [Compound I-158, N-{4-[3-(pyrrolidin-1-ylsulfonyl)-1H-pyrrolo[2,3-b]pyridin-5-yl]pyridin-2-yl}acetamide], the IC50 is under 10 nM. Molecule `CC(=O)Nc1cc(-c2cncc(S(=O)(=O)N3CCN(C)CC3)c2)ccn1` [Compound I-481] displayed an IC50 of 10 to 50 nM. On the same count and under the same terms, the result for `CC(=O)Nc1cc(-c2cnc(C)c(NS(=O)(=O)c3ccccc3C(F)(F)F)c2)ccn1` [Compound I-62, N-[6-methyl-5-({[2-(trifluoromethyl)phenyl]sulfonyl}amino)-3,4′-bipyridin-2′-yl]acetamide] reads under 10 nM.

`CC(=O)Nc1cc(-c2cnc(N)c(C(=O)N(C)C)c2)ccn1` [Compound I-149, 2′-acetamido-6-amino-N,N-dimethyl-3,4′-bipyridine-5-carboxamide] returned an IC50 of 10 to 50 nM. Same read-out and setting: the figure for `CC(=O)Nc1cc(-c2cnc(C)c(OS(=O)(=O)N(C)C)c2)ccn1` [Compound I-359, 2′-acetamido-6-methyl-3,4′-bipyridin-5-yl dimethylsulfamate] is 10 to 50 nM. With `CC(=O)Nc1cc(-c2cnc(NCC3CC3)c(NCC3CC3)c2)ccn1` [Compound I-65, N-{5,6-bis[(cyclopropylmethyl)amino]-3,4′-bipyridin-2′-yl}acetamide], the IC50 was over 100 nM. On the same count and under the same terms, the figure for `CC(=O)Nc1cc(-c2cnc3ccn(S(=O)(=O)c4ccccc4)c3c2)ccn1` [Compound I-23, N-{4-[1-(phenylsulfonyl)-1H-pyrrolo[3,2-b]pyridin-6-yl]pyridin-2-yl}acetamide] is under 10 nM; for `CC(=O)Nc1cc(-c2cnc(N)c(S(=O)(=O)N(C)Cc3ccccc3)c2)ccn1` [Compound I-76, N-{6-amino-5-[benzyl(methyl)sulfamoyl]-3,4′-bipyridin-2′-yl}acetamide] it is under 10 nM. The same measure, in the same setting: the figure for `CC(=O)Nc1cc(-c2cnc(N)c(S(=O)(=O)C(C)C)c2)ccn1` [Compound I-175, N-[6-amino-5-(isopropylsulfonyl)-3,4′-bipyridin-2′-yl]acetamide] is 10 to 50 nM.

For the molecule `CC(=O)Nc1cc(-c2cnc(Cl)c(NS(=O)(=O)N(C)C)c2C)ccn1` [Compound I-236, N-{6-chloro-5-[(dimethylsulfamoyl)amino]-4-methyl-3,4′-bipyridin-2′-yl}acetamide], the IC50 fell in the range of 10 to 50 nM. Still for that read-out and setting: the figure for `COc1ncc(-c2ccnc(NC(C)=O)c2)c(C)c1S(=O)(=O)NC(C)(C)C` [Compound I-442, N-[5-(tert-butylsulfamoyl)-6-methoxy-4-methyl-3,4′-bipyridin-2′-yl]acetamide] is 10 to 50 nM; for `CC(=O)Nc1cc(-c2cnc(N)c(S(=O)(=O)Nc3ccc(F)cc3F)c2)ccn1` [Compound I-170, N-{6-amino-5-[(2,4-difluorophenyl)sulfamoyl]-3,4′-bipyridin-2′-yl}acetamide] it is under 10 nM. The same measure, in the same setting: the result for `CC(=O)Nc1cc(-c2cnc(N)c(C(=O)N3CCC(C)CC3)c2)ccn1` [Compound I-81, N-{6-amino-5-[[4-methylpiperidin-1-yl)carbonyl]-3,4′-bipyridin-2′-yl}acetamide] reads under 10 nM; that for `Cc1ncc(-c2ccnc(NC(=O)C3CC3(F)F)c2)cc1NS(=O)(=O)c1ccc(F)cc1F` (racemic) [Compound I-16, (rac)-N-(5-{[(2,4-difluorophenyl)sulfonyl]amino}-6-methyl-3,4′-bipyridin-2′-yl)-2,2-difluorocyclopropanecarboxamide], under 10 nM; that for `CC(=O)Nc1cc(-c2cnc(C)c(NS(=O)(=O)c3ccc(F)cc3F)c2C)ccn1` [Compound I-247, N-(5-{[(2,4-difluorophenyl)sulfonyl]amino}-4,6-dimethyl-3,4′-bipyridin-2′-yl)acetamide], 10 to 50 nM. On the same count and under the same terms, the figure for `CC(=O)Nc1cc(-c2cnc(Cl)c(NS(=O)(=O)c3ccc(F)cc3F)c2C)c(C)cn1` [Compound I-250, N-(6-chloro-5-{[(2,4-difluorophenyl)sulfonyl]amino}-4,5′-dimethyl 3,4′-bipyridin-2′-yl)acetamide] is 10 to 50 nM; for `Cc1nccc(Nc2cc(-c3cnc(C)c(NC(=O)N4CC(F)(F)C4)c3)ccn2)n1` [Compound I-482, 3,3-difluoro-N-{6-methyl-2′-[(2-methylpyrimidin-4-yl)amino]-3,4′-bipyridin-5-yl}azetidine-1-carboxamide] it is 50 to 100 nM; for `Cc1nccc(Nc2cc(-c3cnc(C)c(NC(=O)c4ccc(F)cc4F)c3)ccn2)n1` [Compound I-249, 2,4-difluoro-N-{6-methyl-2′-[(2-methylpyrimidin-4-yl)amino]-3,4′-bipyridin-5-yl}benzamide] it is 50 to 100 nM. In turn, `CC(=O)Nc1cc(-c2cnc(C)c(N(CCO)S(=O)(=O)c3ccc(F)cc3F)c2)ccn1` [Compound I-319, N-(5-{[(2,4-difluorophenyl)sulfonyl](2-hydroxyethyl)amino}-6-methyl-3,4′-bipyridin-2′-yl]acetamide] gave an IC50 of over 100 nM.

The molecule `CC(=O)Nc1cc(-c2cnc(C)c(S(N)(=O)=O)c2)ccn1` [Compound I-395, N-(6-methyl-5-sulfamoyl-3,4′-bipyridin-2′-yl)acetamide] yielded an IC50 of 10 to 50 nM. In turn, `Cc1ncc(-c2ccnc(NC(=O)C3CC3(F)F)c2)cc1NS(=O)(=O)N(C)C` (single isomer, unassigned) [Compound I-499] gave an IC50 of 10 to 50 nM. Still for that read-out and setting: the result for `CC(=O)Nc1cc(-c2cnc(N(C)C)c(NS(=O)(=O)c3ccc(F)cc3F)c2)ccn1` [Compound I-25, N-[5-{[(2,4-difluorophenyl)sulfonyl]amino}-6-(dimethylamino)-3,4′-bipyridin-2′-yl]acetamide] reads 10 to 50 nM.
